# Experimental data published in patent US20040062815A1, “Bdellosomes” (priority 2000, published 2004).
# Key:
# trypanosomes = assay: inhibition of the growth of trypanosomes by free daunomycin; assay type: cell-based, Trypanosoma brucei brucei
# [1] = assay type: physicochemical
# Description: In addition, the simplicity of the synthesis of the bdellosomes resulting from the monomolecular structure of the particle is particularly noteworthy.
Compound,concentration in the medium causing inhibition of the growth of trypanosomes (trypanosomes),Stability [1]
COc1cccc2c1C(=O)c1c(O)c3c(c(O)c1C2=O)C[C@@](O)(C(C)=O)C[C@@H]3O[C@H]1C[C@H](N)[C@H](O)[C@H](C)O1 [daunomycin],≥ 10^−7 mol,–
"polyvinyl(te/o-alanylpolylactide)ate[a=4000, b=100] [bdellosomes]",–,high
